What was measured:
human PI3K (p110α/p85α) = human PI3K (p110α/p85α) (Homo sapiens, UniProt P42336); test: Measurement of PI3K inhibitory activity (AlphaScreen GST Detection Kit); assay type: biochemical; conditions: 10 μM ATP, 4 μM PI(4,5)P2, read-out: Enzyme inhibitory activity (IC50, μM) PI3K α
Protocol: The inhibitory activity of compounds of the present invention represented by formula (I) was measured with human PI3K (p110α/p85α) prepared in a baculovirus expression system using the AlphaScreen GST Detection Kit (Perkin Elmer, Inc.). A predetermined concentration of the compound of the present invention dissolved in dimethylsulfoxide (DMSO) and PI3K were mixed in a 384-well assay plate and after allowing to stand for 20 minutes at room temperature, 4 μM PI(4,5)P2 (Echelon Corporation) and 10 μM ATP (5 mM Hepes, pH 7.5, 2.5 mM MgCl2) were added to initiate the reaction. After reacting at 37° C. for 15 minutes, GST-GRP1 expressed and purified from Escherichia coli, Anti-GST Acceptor Beads (Perkin Elmer, Inc.), Streptavidin Donor Beads (Perkin Elmer, Inc.) and biotin-PI (3,4,5)P3 (Echelon Corporation) (10 mM Tris-HCl pH 7.4, 150 mM NaCl, 7.5 mM EDTA, 1 mM DTT, 0.1% Tween 20) were added, and after allowing to stand for 1 hour at room temperature, light at 520 to 620 nm emitted as a result of exciting with light at 680 nm was measured with the EnVision measuring instrument (Perkin Elmer, Inc.).
Test Example 1 described above can be performed according to “Analytical Biochemistry, 2003, 313, 234-245; Alexander Gray et al”.

[1] = tested on: human lung cancer cell line NCI-H460; test: Cell proliferation inhibitory activity, NCI-H460 (Cell Counting Kit-8); assay type: cell-based; conditions: 96 h, NCI-H460, 4 days, read-out: Cell proliferation inhibitory activity (IC50, μM) Non-small cell cancer (NCIH460)
Protocol: (§1) The cell proliferation inhibitory activity was measured for compounds of the present invention represented by formula (I). Cancer cell proliferation inhibitory activity was measured using the Cell Counting Kit-8 (Dojindo). 2000 cells each of human colon cancer cell line HCT116 purchased from the American Type Culture Collection (Virginia, USA) were seeded into each well of a 96-well culture plate followed by the addition of a predetermined concentration of the compounds and cultivating in a 5% CO2 environment at 37° C. for 4 days. On the fourth day of cultivating, the Cell Counting Kit-8 solution was added and absorbance (measuring wavelength: 450 nm, reference wavelength: 615 nm) was measured in accordance with the protocol provided with the kit.
(§2) Cancer cell proliferation inhibitory activity was also measured for human lung cancer cell line NCI-H460 and human prostate cancer cell line PC3 purchased from the American Type Culture Collection.

[2] = tested on: human colon cancer cell line HCT116; test: Cell proliferation inhibitory activity, HCT116 (Cell Counting Kit-8); assay type: cell-based; conditions: HCT-116, 96 h, HCT116, 4 days
Protocol: as §1

[3] = tested on: human prostate cancer cell line PC3; test: Cell proliferation inhibitory activity, PC3 (Cell Counting Kit-8); assay type: cell-based; conditions: PC-3, 96 h, PC3, 4 days
Protocol: as §1, §2

human PI3K (p110α/p85α), sequence (P42336 whole entry): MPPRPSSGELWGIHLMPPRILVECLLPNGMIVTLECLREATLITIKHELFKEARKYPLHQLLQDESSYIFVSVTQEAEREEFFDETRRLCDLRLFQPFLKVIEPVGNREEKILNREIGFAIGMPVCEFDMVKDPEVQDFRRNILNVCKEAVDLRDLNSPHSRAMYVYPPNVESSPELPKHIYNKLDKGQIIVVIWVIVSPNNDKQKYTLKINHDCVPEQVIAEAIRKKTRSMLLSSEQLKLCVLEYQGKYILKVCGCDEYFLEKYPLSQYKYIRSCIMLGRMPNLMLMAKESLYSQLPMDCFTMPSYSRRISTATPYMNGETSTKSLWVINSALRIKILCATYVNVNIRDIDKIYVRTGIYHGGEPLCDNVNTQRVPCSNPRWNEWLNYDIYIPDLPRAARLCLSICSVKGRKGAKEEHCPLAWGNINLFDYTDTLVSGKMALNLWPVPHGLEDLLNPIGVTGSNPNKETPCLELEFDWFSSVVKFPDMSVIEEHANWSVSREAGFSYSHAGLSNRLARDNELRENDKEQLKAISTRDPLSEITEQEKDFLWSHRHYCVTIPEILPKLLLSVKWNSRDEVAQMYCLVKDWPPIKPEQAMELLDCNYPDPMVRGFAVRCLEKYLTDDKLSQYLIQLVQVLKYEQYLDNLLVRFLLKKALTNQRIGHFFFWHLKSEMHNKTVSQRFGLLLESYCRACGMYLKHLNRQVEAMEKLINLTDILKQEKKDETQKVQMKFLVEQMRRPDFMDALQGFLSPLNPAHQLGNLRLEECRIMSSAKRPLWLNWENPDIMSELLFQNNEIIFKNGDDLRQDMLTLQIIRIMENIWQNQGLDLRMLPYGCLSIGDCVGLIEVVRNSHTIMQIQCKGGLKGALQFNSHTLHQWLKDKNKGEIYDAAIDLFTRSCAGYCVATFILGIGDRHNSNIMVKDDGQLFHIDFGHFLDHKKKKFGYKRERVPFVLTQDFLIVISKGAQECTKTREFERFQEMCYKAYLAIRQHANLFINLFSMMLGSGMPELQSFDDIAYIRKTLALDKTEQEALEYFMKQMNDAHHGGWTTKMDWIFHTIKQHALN
human PI3K (p110α/p85α), sequence (P27986 whole entry partner): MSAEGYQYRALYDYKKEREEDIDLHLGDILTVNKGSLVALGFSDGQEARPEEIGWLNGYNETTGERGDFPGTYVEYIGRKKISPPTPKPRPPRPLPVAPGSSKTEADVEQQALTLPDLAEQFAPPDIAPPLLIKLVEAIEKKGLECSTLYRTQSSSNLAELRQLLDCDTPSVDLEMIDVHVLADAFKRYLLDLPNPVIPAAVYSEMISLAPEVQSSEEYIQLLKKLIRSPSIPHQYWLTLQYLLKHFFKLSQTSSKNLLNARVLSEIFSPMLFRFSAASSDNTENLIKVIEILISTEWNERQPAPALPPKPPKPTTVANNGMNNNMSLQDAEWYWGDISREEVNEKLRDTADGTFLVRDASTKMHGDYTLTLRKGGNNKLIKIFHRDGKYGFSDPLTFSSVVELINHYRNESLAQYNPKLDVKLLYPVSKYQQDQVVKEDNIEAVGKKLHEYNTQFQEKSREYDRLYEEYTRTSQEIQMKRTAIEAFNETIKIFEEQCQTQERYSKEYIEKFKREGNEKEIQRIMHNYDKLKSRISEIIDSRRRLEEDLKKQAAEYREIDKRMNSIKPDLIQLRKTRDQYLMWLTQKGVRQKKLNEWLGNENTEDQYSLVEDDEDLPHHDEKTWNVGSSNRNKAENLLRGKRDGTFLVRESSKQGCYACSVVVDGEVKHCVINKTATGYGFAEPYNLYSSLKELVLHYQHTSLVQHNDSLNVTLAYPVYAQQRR

| IC50 (human PI3K (p110α/p85α)) [µM] | IC50 [1] [µM] | IC50 [2] [µM] | IC50 [3] [µM] | Structure (SMILES) |
| --- | --- | --- | --- | --- |
| 0.007 | 0.071 | 0.12 | 0.18 | CCN1CCN(c2cc(-n3ccc4c(-c5cnc(N)nc5)nc(N5CCOCC5)nc43)ccn2)CC1 [Compound 1-1, 5-{7-[2-(4-Ethyl-piperazin-1-yl)-pyridin-4-yl]-2-morpholin-4-yl-7H-pyrrolo[2,3-d]pyrimidin-4-yl}-pyrimidin-2-ylamine] |
| 0.093 | 1.25 | 1.45 | 3.18 | Cc1ccc(C(=O)N2CCOCC2)cc1-n1ccc2c(-c3cnc(N)nc3)nc(N3CCOCC3)nc21 [Compound 2-1, {3-[4-(2-amino-pyrimidin-5-yl)-2-morpholin-4-yl-pyrrolo[2,3-d]pyrimidin-7-yl]-4-methyl-phenyl}-morpholin-4-yl-methanone] |
| 0.093 | 0.17 | 0.57 | 0.43 | Nc1ncc(-c2nc(N3CCOCC3)nc3c2ccn3-c2ccc(CN3CCS(=O)(=O)CC3)cc2)cn1 [Compound 3-1, 5-{7-[4-(1,1-dioxo-1λ^6-thiomorpholin-4-ylmethyl)-phenyl]-2-morpholin-4-yl-7H-pyrrolo[2,3-d]pyrimidin-4-yl}-pyrimidin-2-ylamine] |
| 0.016 | 0.29 | 0.41 | 1.14 | CS(=O)(=O)n1ccc2c(-c3cnc(N)nc3)nc(N3CCOCC3)nc21 [Compound 4-1, 5-(7-methanesulfonyl-2-morpholin-4-yl-7H-pyrrolo[2,3-d]pyrimidin-4-yl)-pyrimidin-2-ylamine] |

— patent publication US20100324284A1, “PYRROLOPYRIMIDINE DERIVATIVE AS P13K INHIBITOR AND USE THEREOF” (CHUGAI SEIYAKU KABUSHIKI KAISHA, priority 2008, published 2010)
